Measurements: patent US20240366589A1, “NHE3-BINDING COMPOUNDS AND METHODS FOR INHIBITING PHOSPHATE TRANSPORT” (Ardelyx, Inc., priority 2013, published 2024)

Tests used:
[1] = biological target: T1, Rat NHE3 (Rattus norvegicus, UniProt P26433); experiment: Cell-based NHE3 activity under prompt conditions (OK cells, BCECF pH recovery), rat NHE3; settings: prompt conditions
T1 construct: expressed in transfected cells; host or cells: Opossum kidney (OK) cells (ATCC), electroporation
Outline: (§1)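 OK cells electroporated with rat or human NHE3 gene, loaded 30 min at room temperature with 5 μM BCECF-AM in NH4Cl-HEPES pH 7.4.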

[2] = test system: phosphorus and calcium levels in the urine of rats; experiment: Urinary excretion of phosphate and calcium in rats (16 h overnight urine); format: in vivo, rat; settings: rats, oral gavage, 16 h post-dose
[3] = test system: absorption of sodium from the intestinal lumen; experiment: Fecal form score (FFS) 16 h after oral dose in rats; format: in vivo, rat; settings: oral gavage, 16 h post-dose, scale 1-5
Outline: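 Eight-week-old Sprague-Dawley rats (n=6) dosed by oral gavage with compound or water vehicle between 4 and 5 PM, then housed in metabolic cages with food and water ad libitum. At 16 h, fecal form scored 1 (normal pellet) to 5 (liquid streams) by two observers; group mean reported.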

[4] = biological target: T2, Human NHE3 (Homo sapiens, UniProt P48764); experiment: Cell-based NHE3 activity under prompt conditions (OK cells, BCECF pH recovery), human NHE3; settings: prompt conditions
T2 construct: expressed in transfected cells; host or cells: Opossum kidney (OK) cells (ATCC), electroporation
T2 sequence (P48764 26-834): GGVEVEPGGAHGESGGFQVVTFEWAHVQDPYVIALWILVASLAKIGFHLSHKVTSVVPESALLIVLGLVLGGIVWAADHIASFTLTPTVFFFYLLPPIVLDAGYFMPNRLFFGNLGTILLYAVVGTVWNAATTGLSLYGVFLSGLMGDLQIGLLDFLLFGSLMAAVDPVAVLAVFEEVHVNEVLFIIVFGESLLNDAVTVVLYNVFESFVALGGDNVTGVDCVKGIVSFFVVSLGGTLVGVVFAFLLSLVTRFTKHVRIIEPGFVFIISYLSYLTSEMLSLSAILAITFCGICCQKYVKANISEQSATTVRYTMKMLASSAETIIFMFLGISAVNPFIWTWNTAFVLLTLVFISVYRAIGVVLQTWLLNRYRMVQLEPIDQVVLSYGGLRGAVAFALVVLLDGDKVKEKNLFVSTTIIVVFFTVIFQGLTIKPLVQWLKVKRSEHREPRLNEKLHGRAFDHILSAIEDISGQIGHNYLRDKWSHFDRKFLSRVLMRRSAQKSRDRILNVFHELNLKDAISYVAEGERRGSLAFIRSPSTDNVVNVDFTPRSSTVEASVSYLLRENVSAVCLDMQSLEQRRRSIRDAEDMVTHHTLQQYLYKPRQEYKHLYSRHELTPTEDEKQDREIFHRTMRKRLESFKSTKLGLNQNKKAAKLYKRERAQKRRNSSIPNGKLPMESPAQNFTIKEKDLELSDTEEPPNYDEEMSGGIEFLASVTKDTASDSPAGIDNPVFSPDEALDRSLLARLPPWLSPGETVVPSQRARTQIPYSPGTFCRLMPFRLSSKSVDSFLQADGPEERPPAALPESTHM
Outline: as §1

[5] = test system: absorption of sodium from the intestinal lumen; experiment: Inhibition of intestinal sodium absorption: urinary sodium (uNa) 16 h after single oral dose in rats; format: in vivo, rat; settings: oral gavage, 16 h post-dose
Outline: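 Eight-week-old Sprague-Dawley rats (n=6) given single oral gavage of compound or water vehicle in the late afternoon, then kept in metabolic cages with chow and water ad libitum. Urine collected over 16 h; sodium quantified by ion chromatography and expressed as % of vehicle mean, compared by one-way ANOVA with Dunnett's test.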

T1 sequence (P26433 29-831): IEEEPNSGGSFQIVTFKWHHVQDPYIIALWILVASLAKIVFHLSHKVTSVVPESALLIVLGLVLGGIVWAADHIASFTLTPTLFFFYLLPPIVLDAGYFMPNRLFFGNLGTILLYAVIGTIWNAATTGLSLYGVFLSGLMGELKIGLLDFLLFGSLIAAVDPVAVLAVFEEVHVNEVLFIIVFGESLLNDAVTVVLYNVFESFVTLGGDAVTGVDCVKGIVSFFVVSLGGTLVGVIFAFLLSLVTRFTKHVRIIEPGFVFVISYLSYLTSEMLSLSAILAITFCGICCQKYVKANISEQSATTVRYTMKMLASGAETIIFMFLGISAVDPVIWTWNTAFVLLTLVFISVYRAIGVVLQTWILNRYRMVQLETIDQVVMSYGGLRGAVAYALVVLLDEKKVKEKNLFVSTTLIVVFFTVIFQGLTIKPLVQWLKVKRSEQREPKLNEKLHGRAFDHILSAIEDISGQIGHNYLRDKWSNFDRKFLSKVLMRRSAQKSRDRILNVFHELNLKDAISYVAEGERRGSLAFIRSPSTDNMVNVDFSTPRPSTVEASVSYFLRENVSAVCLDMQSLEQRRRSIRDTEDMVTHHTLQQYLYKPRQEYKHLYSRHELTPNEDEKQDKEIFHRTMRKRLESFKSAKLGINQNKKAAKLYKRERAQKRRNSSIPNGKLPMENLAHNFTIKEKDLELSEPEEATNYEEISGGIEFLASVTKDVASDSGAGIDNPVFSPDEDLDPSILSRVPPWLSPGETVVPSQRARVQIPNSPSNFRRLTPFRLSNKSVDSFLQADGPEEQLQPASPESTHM

SMILES | Prompt Rat NHE3 pIC50 [1] | Prompt Human NHE3 pIC50 [4] | Urine P % of control ([2]; dose 10 mg/kg) [%] | Fecal Form Score average ([3]; dose 10 mg/kg) | Urine Na % of control ([5]; dose 10 mg/kg) [%] | Urine P % of control ([2]; dose 1 mg/kg) [%] | Urine P % of control ([2]; dose 3 mg/kg) [%] | Fecal Form Score average ([3]; dose 1 mg/kg) | Fecal Form Score average ([3]; dose 3 mg/kg) | Urine Na % of control ([5]; dose 1 mg/kg) [%] | Urine Na % of control ([5]; dose 3 mg/kg) [%]
CN1Cc2c(Cl)cc(Cl)cc2[C@H](c2cccc(S(=O)(=O)NCCOCCOCCNC(=O)CCC(CCC(=O)NCCOCCOCCNS(=O)(=O)c3cccc([C@@H]4CN(C)Cc5c(Cl)cc(Cl)cc54)c3)(CCC(=O)NCCOCCOCCNS(=O)(=O)c3cccc([C@@H]4CN(C)Cc5c(Cl)cc(Cl)cc54)c3)NC(=O)N(C)C[C@H](O)[C@@H](O)[C@H](O)[C@H](O)CO)c2)C1 [compound 142] | 8.10 | 7.10 | – | – | – | – | 38 | – | 2 | – | 45
CN1Cc2c(Cl)cc(Cl)cc2[C@H](c2cccc(S(=O)(=O)NCCOCCOCCNC(=O)CCC(CCC(=O)NCCOCCOCCNS(=O)(=O)c3cccc([C@@H]4CN(C)Cc5c(Cl)cc(Cl)cc54)c3)(CCC(=O)NCCOCCOCCNS(=O)(=O)c3cccc([C@@H]4CN(C)Cc5c(Cl)cc(Cl)cc54)c3)NC(=O)CCC(=O)O)c2)C1 [compound 123] | 7.50 | 7.80 | – | – | – | 124 | 88 | 1 | 3 | 49 | 12
CN1CCN(C(=O)NC(CCC(=O)NCCOCCOCCNS(=O)(=O)c2cccc(C3CN(C)Cc4c(Cl)cc(Cl)cc43)c2)(CCC(=O)NCCOCCOCCNS(=O)(=O)c2cccc([C@@H]3CN(C)Cc4c(Cl)cc(Cl)cc43)c2)CCC(=O)NCCOCCOCCNS(=O)(=O)c2cccc([C@@H]3CN(C)Cc4c(Cl)cc(Cl)cc43)c2)CC1 (stereo in doubt) [compound 153] | 6.90 | 7.50 | – | – | – | – | 84 | – | 3 | – | 28
CN(CC(=O)NCCOCCOCCNC(=O)NCCOCCOCCOCCN1CCN(c2ccc(-c3nc(N=C(N)N)nc4ccc(Cl)cc34)cc2)CC1)CC(=O)NCCOCCOCCNC(=O)NCCOCCOCCOCCN1CCN(c2ccc(-c3nc(N=C(N)N)nc4ccc(Cl)cc34)cc2)CC1 [compound 45] | 7.50 | 7.90 | 109 | 1 | 97 | – | – | – | – | – | –
CN(CC(=O)NCCOCCOCCNC(=O)NCCOCCOCCOCCOc1ccc(-c2nc(NC(=N)N)nc3ccc(Cl)cc23)cc1)CC(=O)NCCOCCOCCNC(=O)NCCOCCOCCOCCOc1ccc(-c2nc(NC(=N)N)nc3ccc(Cl)cc23)cc1 [compound 34] | 7.90 | 8.20 | 72 | 1 | 76 | – | – | – | – | – | –
CN1Cc2c(Cl)cc(Cl)cc2[C@H](c2cccc(S(=O)(=O)NCCOCCOCCNC(=O)CCN(CCC(=O)NCCOCCOCCNS(=O)(=O)c3cccc([C@@H]4CN(C)Cc5c(Cl)cc(Cl)cc54)c3)CCC(=O)NCCOCCOCCNS(=O)(=O)c3cccc([C@@H]4CN(C)Cc5c(Cl)cc(Cl)cc54)c3)c2)C1 [compound 80] | 5.50 | 6.93 | 21 | 3 | 9 | 70 | 39 | 1 | 2 | 66 | 55
C/C(=C\c1cc(F)c(Oc2ccc(S(=O)(=O)NCCOCCOCCOCCNC(=O)NCCOCCOCCNC(=O)NCCOCCOCCOCCNS(=O)(=O)c3ccc(Oc4c(F)cc(/C=C(\C)C(=O)N=C(N)N)cc4F)cc3)cc2)c(F)c1)C(=O)N=C(N)N [compound 14] | 7.00 | 7.60 | 59 | 1 | 51 | – | – | – | – | – | –
CN1Cc2c(Cl)cc(Cl)cc2[C@H](c2cccc(S(=O)(=O)NCCOCCOCCOCCNC(=O)c3cc(C(=O)NCCOCCOCCOCCNS(=O)(=O)c4cccc([C@@H]5CN(C)Cc6c(Cl)cc(Cl)cc65)c4)cc(C(=O)NCCOCCOCCOCCNS(=O)(=O)c4cccc([C@@H]5CN(C)Cc6c(Cl)cc(Cl)cc65)c4)c3)c2)C1 [compound 56] | 6.90 | 7.00 | 50 | 2 | 15 | – | – | – | – | – | –
CN1Cc2c(Cl)cc(Cl)cc2[C@H](c2cccc(S(=O)(=O)NCCOCCOCCNC(=O)CN(CCOCCOCCN(CC(=O)NCCOCCOCCNS(=O)(=O)c3cccc([C@@H]4CN(C)Cc5c(Cl)cc(Cl)cc54)c3)CC(=O)NCCOCCOCCNS(=O)(=O)c3cccc([C@@H]4CN(C)Cc5c(Cl)cc(Cl)cc54)c3)CC(=O)NCCOCCOCCNS(=O)(=O)c3cccc([C@@H]4CN(C)Cc5c(Cl)cc(Cl)cc54)c3)c2)C1 [compound 85] | 5.80 | 6.10 | 85 | 1 | 92 | – | – | – | – | – | –

Second part, led by results:

Prompt Rat NHE3 pIC50 [1] | Prompt Human NHE3 pIC50 [4] | SMILES | Urine P % of control ([2]; dose 10 mg/kg) [%] | Fecal Form Score average ([3]; dose 10 mg/kg) | Urine Na % of control ([5]; dose 10 mg/kg) [%] | Urine P % of control ([2]; dose 1 mg/kg) [%] | Urine P % of control ([2]; dose 3 mg/kg) [%] | Fecal Form Score average ([3]; dose 1 mg/kg) | Fecal Form Score average ([3]; dose 3 mg/kg) | Urine Na % of control ([5]; dose 1 mg/kg) [%] | Urine Na % of control ([5]; dose 3 mg/kg) [%]
<5.00 | 5.60 | CCCCCCCCCCC(=O)NC(CCC(=O)NCCOCCOCCNS(=O)(=O)c1cccc([C@@H]2CN(C)Cc3c(Cl)cc(Cl)cc32)c1)(CCC(=O)NCCOCCOCCNS(=O)(=O)c1cccc([C@@H]2CN(C)Cc3c(Cl)cc(Cl)cc32)c1)CCC(=O)NCCOCCOCCNS(=O)(=O)c1cccc([C@@H]2CN(C)Cc3c(Cl)cc(Cl)cc32)c1 [compound 94] | 66 | 1 | 67 | – | – | – | – | – | –
6.30 | 6.90 | CN1Cc2c(Cl)cc(Cl)cc2C(c2cccc(S(=O)(=O)NCCOCCOCCOCCNC(=O)CN(CCN(CCN(CC(=O)NCCOCCOCCOCCNS(=O)(=O)c3cccc([C@@H]4CN(C)Cc5c(Cl)cc(Cl)cc54)c3)CC(=O)NCCOCCOCCOCCNS(=O)(=O)c3cccc([C@@H]4CN(C)Cc5c(Cl)cc(Cl)cc54)c3)CC(=O)NCCOCCOCCOCCNS(=O)(=O)c3cccc([C@@H]4CN(C)Cc5c(Cl)cc(Cl)cc54)c3)CC(=O)NCCOCCOCCOCCNS(=O)(=O)c3cccc([C@@H]4CN(C)Cc5c(Cl)cc(Cl)cc54)c3)c2)C1 (stereo in doubt) [compound 75] | 55 | 1 | 81 | – | – | – | – | – | –
7.25 | 7.27 | CN1Cc2c(Cl)cc(Cl)cc2[C@H](c2cccc(S(=O)(=O)NCCOCCOCCNC(=O)CCC(CCC(=O)NCCOCCOCCNS(=O)(=O)c3cccc([C@@H]4CN(C)Cc5c(Cl)cc(Cl)cc54)c3)(CCC(=O)NCCOCCOCCNS(=O)(=O)c3cccc([C@@H]4CN(C)Cc5c(Cl)cc(Cl)cc54)c3)NC(=O)NC[C@H](O)[C@@H](O)[C@H](O)[C@H](O)CO)c2)C1 [compound 143] | – | – | – | 73 | 93 | 1 | 3 | 68 | 34
<5.00 | 6.55 | O=C(NCCCCNC(=O)NCCOCCOCCNC(=O)Nc1cccc(O[C@H]2c3ccccc3C[C@@H]2N2CCCCC2)c1)NCCOCCOCCNC(=O)Nc1cccc(O[C@H]2c3ccccc3C[C@@H]2N2CCCCC2)c1 [compound 126] | 94 | 1 | 93 | – | – | – | – | – | –
7.30 | 7.30 | CN(CC(=O)O)CC(=O)NC(CCC(=O)NCCOCCOCCNS(=O)(=O)c1cccc([C@@H]2CN(C)Cc3c(Cl)cc(Cl)cc32)c1)(CCC(=O)NCCOCCOCCNS(=O)(=O)c1cccc([C@@H]2CN(C)Cc3c(Cl)cc(Cl)cc32)c1)CCC(=O)NCCOCCOCCNS(=O)(=O)c1cccc([C@@H]2CN(C)Cc3c(Cl)cc(Cl)cc32)c1 [compound 138] | – | – | – | – | 78 | – | 2 | – | 37
